The target of one series is T1, ATR (Homo sapiens, UniProt Q13535).
T1 construct: purchased Eurofins 14-953
As to the kind of experiment: ATR kinase inhibition, Mobility Shift Assay. The series is classed as biochemical. Particulars: n = 3, mean ± SD. As for the experimental part: The in vitro ATR kinase inhibitory activities were determined by ChemPartner Co., Ltd. (Shanghai, China) using the Mobility Shift Assay. The tested compound was dissolved with DMSO and diluted to 1000/3 × of the final desired highest inhibitor concentration in the reaction. […] The assay wells were incubated at 28 °C for 4 h.

A further series has as its target mTOR (Homo sapiens, UniProt P42345). As to the kind of experiment: PIKK family kinase selectivity. The series is classed as biochemical. Particulars: @2500 nM; read-out: mTOR inhibitory rate at certain concentration.
A further series has as its system MDA‐MB‐436. As to the kind of experiment: Cell growth inhibition, CellTiter‐Glo (CTG). The series is classed as cell-based. Particulars: Homo sapiens, MDA-MB-436, 120 h; CTG, 5 days, n = 3. Here is the method:
All cells were grown in a humidified incubator at 37 °C and 5% CO2.
(§1) Growth viability was determined by the CellTiter‐Glo luminescent viability assay (Promega) 5 days after drug treatment. Cell viability was measured immediately after dosing (Day 0) and after 5 days of incubation using CellTiter‐Glo (CTG, Promega, G7573). Relative viability was calculated by normalizing the raw luminescence counts of the treated groups to those of the DMSO control groups. IC₅₀ values were calculated using sigmoidal dose‐response curve fitting with GraphPad Prism 9.0 software.

For series [1], the system named is MDA‐MB‐231 cells. As to the kind of experiment: Comet assay, DNA damage. The series is classed as cell-based. As to conditions: 24 h, vs AZD6738, Olaparib, and their combination.
In the next series the test system is MDA‐MB‐453. As to the kind of experiment: Cell growth inhibition, CellTiter‐Glo (CTG). The series is classed as cell-based. Particulars: Homo sapiens, MDA-MB-453; n = 3; read-out: IC50 MAD‐MB‐453. As for the experimental part: as §1
For the next series, the system named is MCF‐7. As to the kind of experiment: Cell growth inhibition, CellTiter‐Glo (CTG). Particulars: Homo sapiens, MCF7; n = 3. The series is classed as cell-based. As for the experimental part: as §1
Another series deals with PARP5B (Homo sapiens, UniProt Q9H2K2). As to the kind of experiment: PARP family selectivity. The series is classed as biochemical. Here is the method:
(§2) The PARP activity assay was performed by ChemPartner (Shanghai, China). Each well was precoated with histone (final conc.: 100 ng mL^−1) diluted in PBS buffer (contains 10 mmol L^−1 NaH2PO4 and 150 mmol L^−1 NaCl, pH 7.4) by incubation at 4 °C overnight. […] The reaction was initiated by the addition of 10 µL of PARP (final conc.: 0.007 nM/well) at room temperature for 60 min. Add 20 µL of anti‐Poly/Mono‐ADP Ribose Rabbit mAb. Incubate for 1.5 h at room temperature and wash the plate three times using PBST buffer. Add 20 µL of diluted (1:2000) anti‐rabbit IgG, HRP‐linked Antibody. Incubate for 1 h at room temperature and wash the plate three times using PBST buffer. Add 25 µL Femto‐ECL Substrate A and Femto‐ECL Substrate B (1:1) mix. Immediately read chemiluminescence on Envision (Revvity, USA).

The next series concerns the target PARP5A (Homo sapiens, UniProt O95271). As to the kind of experiment: PARP family selectivity. The series is classed as biochemical. Here is the method:
as §2

A short description of series [2]: Oral bioavailability (statement, no method). The series is classed as in vivo. As to conditions: preclinical models; necessitates I.P. delivery.
Series [3] in a line: Preliminary safety evaluation in xenografted mice (body weight, animal loss, H&E staining of organs). The series is classed as in vivo. As for the experimental part:
MDA‐MB‐468 cells (1 × 10^7) were implanted in the right flanks subcutaneously in female nude mice. When the implanted tumor grew to a volume of 110 mm^3, the animals were randomly divided into four groups, each group containing four animals. […] Tumor size and body weights were measured twice a week. On day 28, the mice were euthanized, tumors were harvested and weighed, and vital organs (heart, liver, spleen, lung, and kidney) were collected. Processed samples were saved for further safety evaluation.
The tumor sample and vital organs were immersed in 4% paraformaldehyde for 4 h and transferred to 70% ethanol. Individual lobes of the sample were placed in processing cassettes, dehydrated through a serial alcohol gradient, and embedded in paraffin wax blocks. Thick tissue sections (5 µm) were dewaxed in xylene, rehydrated through decreasing concentrations of ethanol, washed in PBS, and stained with H&E. After staining, the sections were dehydrated through increasing concentrations of ethanol and xylene. Images were acquired on a fluorescent inverted microscope (Nikon DS‐Ri1).

The target in a further series is ATM (Homo sapiens, UniProt Q13315). As to the kind of experiment: PIKK family kinase selectivity. The series is classed as biochemical.
The target of the next series is DNA‐PK (Homo sapiens, UniProt P78527). As to the kind of experiment: PIKK family kinase selectivity. The series is classed as biochemical.
Another series relates to MDA‐MB‐468 cells. As to the kind of experiment: Cell apoptosis assay, Annexin V‐FITC/PI. As to conditions: MDA‐MB‐468, 72 h. The series is classed as cell-based. As for the experimental part:
(§3) The cell apoptosis analysis was performed with cells seeded in 6‐well plates in growth media. The cells were allowed to attach overnight (8 h). The cultures were treated with different tested drugs for 72 h and evaluated using an Annexin V Flow Kit (BioLegend#B367750) according to the manufacturer's instructions. The data were analyzed by FlowJo software (Tree Star, Inc., Ashland, OR).

Series [4] deals with MDA‐MB‐231 cells. As to the kind of experiment: Cell apoptosis assay, Annexin V‐FITC/PI. The series is classed as cell-based. Particulars: MDA‐MB‐231, 72 h. Here is the method: as §3

The source of these data is article PMC12362783 (Advanced Science, 2025).

Sequence of PARP5B (Q9H2K2 whole entry, species assumed): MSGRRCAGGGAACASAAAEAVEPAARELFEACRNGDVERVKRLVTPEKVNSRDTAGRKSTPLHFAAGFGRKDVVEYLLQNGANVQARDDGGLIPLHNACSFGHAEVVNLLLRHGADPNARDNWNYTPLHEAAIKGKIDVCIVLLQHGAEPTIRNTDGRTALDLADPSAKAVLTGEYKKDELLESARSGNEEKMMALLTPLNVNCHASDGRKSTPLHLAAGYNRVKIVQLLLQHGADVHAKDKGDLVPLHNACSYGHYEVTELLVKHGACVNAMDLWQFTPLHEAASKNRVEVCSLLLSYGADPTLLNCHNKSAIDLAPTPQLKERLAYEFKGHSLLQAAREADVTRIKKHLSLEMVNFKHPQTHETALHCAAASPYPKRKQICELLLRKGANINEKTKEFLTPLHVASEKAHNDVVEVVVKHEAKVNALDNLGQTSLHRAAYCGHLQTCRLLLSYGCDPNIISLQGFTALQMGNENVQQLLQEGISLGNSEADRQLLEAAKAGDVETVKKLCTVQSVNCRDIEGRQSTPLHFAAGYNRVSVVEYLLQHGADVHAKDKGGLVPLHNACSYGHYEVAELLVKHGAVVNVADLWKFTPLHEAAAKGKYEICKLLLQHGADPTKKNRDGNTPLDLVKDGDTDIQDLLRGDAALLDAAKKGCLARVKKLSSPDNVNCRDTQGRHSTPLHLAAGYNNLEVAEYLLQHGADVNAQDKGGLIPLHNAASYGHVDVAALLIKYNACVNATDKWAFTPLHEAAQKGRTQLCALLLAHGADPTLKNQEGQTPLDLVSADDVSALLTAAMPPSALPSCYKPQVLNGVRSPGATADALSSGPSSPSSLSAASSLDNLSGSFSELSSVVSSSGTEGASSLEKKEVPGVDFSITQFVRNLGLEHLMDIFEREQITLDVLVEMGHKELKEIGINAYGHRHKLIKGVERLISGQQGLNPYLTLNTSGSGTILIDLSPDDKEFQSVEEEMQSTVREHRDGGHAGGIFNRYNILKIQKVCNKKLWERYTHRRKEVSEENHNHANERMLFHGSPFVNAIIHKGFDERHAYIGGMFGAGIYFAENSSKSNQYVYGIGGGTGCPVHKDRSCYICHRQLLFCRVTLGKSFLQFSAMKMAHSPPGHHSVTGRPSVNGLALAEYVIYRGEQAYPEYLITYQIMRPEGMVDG
Sequence of PARP5A (O95271 whole entry, species assumed): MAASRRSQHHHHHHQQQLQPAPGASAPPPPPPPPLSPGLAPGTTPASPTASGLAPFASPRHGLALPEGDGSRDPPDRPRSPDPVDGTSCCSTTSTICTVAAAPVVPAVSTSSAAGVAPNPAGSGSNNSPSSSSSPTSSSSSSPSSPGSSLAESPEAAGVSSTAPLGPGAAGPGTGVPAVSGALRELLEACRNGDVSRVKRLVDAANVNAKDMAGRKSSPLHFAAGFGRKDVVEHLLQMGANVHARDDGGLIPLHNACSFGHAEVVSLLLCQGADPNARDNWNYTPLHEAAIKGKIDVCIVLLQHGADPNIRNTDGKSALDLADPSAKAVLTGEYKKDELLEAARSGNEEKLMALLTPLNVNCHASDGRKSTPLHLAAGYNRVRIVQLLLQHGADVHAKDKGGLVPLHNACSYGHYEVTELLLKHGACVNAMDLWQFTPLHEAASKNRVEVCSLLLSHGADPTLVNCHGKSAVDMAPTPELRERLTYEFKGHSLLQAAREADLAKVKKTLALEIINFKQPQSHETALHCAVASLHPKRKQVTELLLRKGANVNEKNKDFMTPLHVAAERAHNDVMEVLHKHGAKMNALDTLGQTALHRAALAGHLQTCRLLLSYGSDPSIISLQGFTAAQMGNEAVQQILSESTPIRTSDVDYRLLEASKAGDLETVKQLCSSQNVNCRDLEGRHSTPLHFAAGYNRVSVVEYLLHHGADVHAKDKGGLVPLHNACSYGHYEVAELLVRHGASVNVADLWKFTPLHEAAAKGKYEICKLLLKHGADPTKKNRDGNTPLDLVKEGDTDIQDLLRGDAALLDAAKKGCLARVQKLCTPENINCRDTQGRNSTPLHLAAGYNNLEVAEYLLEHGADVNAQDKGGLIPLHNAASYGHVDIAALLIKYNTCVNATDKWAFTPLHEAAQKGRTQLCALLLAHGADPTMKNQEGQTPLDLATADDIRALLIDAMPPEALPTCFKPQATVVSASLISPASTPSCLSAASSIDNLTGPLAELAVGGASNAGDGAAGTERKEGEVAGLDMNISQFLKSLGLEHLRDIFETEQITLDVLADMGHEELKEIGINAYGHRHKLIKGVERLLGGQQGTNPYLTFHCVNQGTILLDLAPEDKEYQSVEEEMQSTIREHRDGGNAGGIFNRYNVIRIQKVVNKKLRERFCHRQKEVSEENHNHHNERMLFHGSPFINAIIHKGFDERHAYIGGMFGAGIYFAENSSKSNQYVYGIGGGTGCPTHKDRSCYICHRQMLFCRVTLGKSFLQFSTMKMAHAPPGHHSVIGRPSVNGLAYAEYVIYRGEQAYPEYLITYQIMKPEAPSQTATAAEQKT

Broadly, the IC50 is the concentration that gives 50% inhibition. As to `C[C@@H]1COCCN1c1cc(CNC(=O)c2ccc(C(=O)N3CCN(C(=O)c4cc(Cc5n[nH]c(=O)c6ccccc56)ccc4F)CC3)cc2)nc(-c2ccnc3[nH]ccc23)n1` [Compound B8, (R)‐4‐(4‐(2‐fluoro‐5‐((4‐oxo‐3,4‐dihydrophthalazin‐1‐yl)methyl)benzoyl)piperazine‐1‐carbonyl)‐N‐((6‐(3‐methylmorpholino)‐2‐(1H‐pyrrolo[2,3‐b]pyridin‐4‐yl)pyrimidin‐4‐yl)methyl) benzamide], the IC50 at ATR was determined as 17.3 ± 2.5 nM; in the series on MDA‐MB‐436, 9 ± 2 nM; in the series with MDA‐MB‐453, 1080 ± 30 nM; in the series with MCF‐7 it was 970 ± 90 nM; at PARP5B, 240 nM; at PARP5A it was 116 nM. The half-maximal inhibitory concentration (IC50) against ATM and on DNA‐PK was greater than 5000 nM each time. Besides, at mTOR, the inhibition at […] was found to be 10.3%. The “comet assay tail intensity” value with MDA‐MB‐231 cells [1] is on record as “markedly increased tail intensity”. In addition, the “PARP5B (selectivity over PARP1, fold)” value on PARP5B (fold of PARP1 selectivity over PARP5B) is given as 631.6 fold. Also, at PARP5A (fold of PARP1 selectivity over PARP5A), the “PARP5A (selectivity over PARP1, fold)” value amounted to 305 fold. For the same compound, the oral bioavailability result in series [2] is “poor oral bioavailability”. Moreover, the “effect on body weight” value in series [3] (B8 25 and 50 mg/kg I.P., 28 days, nude mice) is reported as “no significant effect on body weight”. Further, the “H&E staining of heart, liver, spleen, lungs, and kidneys” value in series [3] (after 28 days of continuous administration) was “did not cause significant changes in organ structure or cellular morphology”. For the same compound, the “ability to induce apoptosis vs combination of AZD6738 and Olaparib” value in the series on MDA‐MB‐468 cells and with MDA‐MB‐231 cells [4] was “markedly stronger capacity to induce apoptosis” throughout.
